This passage reports IC50 results from patent US20200317642A1, “AMINE-SUBSTITUTED HETEROCYCLIC COMPOUNDS AS EHMT2 INHIBITORS AND DERIVATIVES THEREOF” (Epizyme, Inc., priority 2017, published 2020).

In one assay the target is T1, human EHMT2 913-1193 (Homo sapiens, UniProt Q96KQ7).
T1 construct: recombinant purified human EHMT2 913-1193, Viva; purchased Viva
T1 sequence (Q96KQ7 913-1193): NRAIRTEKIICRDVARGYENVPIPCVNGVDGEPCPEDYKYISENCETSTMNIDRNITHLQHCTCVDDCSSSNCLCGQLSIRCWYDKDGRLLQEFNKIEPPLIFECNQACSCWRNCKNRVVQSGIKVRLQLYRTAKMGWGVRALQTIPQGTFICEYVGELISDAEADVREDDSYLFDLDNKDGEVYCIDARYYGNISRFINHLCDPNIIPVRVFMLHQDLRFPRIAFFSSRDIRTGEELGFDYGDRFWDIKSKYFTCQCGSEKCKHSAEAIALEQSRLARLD
Kind of assay: EHMT2 enzyme assay on histone peptide substrate. It counts as biochemical. The following applies: histone H3 1-15 peptide, balanced conditions. An excerpt: Recombinant purified human EHMT2 913-1193 ([…]) synthesized by Viva was used for all experiments. Biotinylated histone peptides were synthesized by Biopeptide and HPLC-purified to >95% purity. Streptavidin Flashplates and seals were purchased from PerkinElmer and 384 Well V-bottom Polypropylene Plates were from Greiner. ^3H-labeled S-adenosylmethionine (^3H-SAM) was obtained from American Radiolabeled Chemicals with a specific activity of 80 Ci/mmol. Unlabeled SAM and S-adenosylhomocysteine (SAH) were obtained from American Radiolabeled Chemicals and Sigma-Aldrich respectively. Flashplates were washed in a Biotek ELx-405 with 0.1% Tween. 384-well Flashplates and 96-well filter binding plates were read on a TopCount microplate reader (PerkinElmer). Compound serial dilutions were performed on a Freedom EVO (Tecan) and spotted into assay plates using a Thermo Scientific Matrix PlateMate (Thermo Scientific). Reagent cocktails were added by Multidrop Combi (Thermo Scientific).
10-point curves of test compounds were made on a Freedom EVO (Tecan) using serial 3-fold dilutions in DMSO, beginning at 2.5 mM (final top concentration of compound was […] and the DMSO was 2%). A 1 μL aliquot of the inhibitor dilution series was spotted in a polypropylene 384-well V-bottom plate (Greiner) using a Thermo Scientific Matrix PlateMate (Thermo Scientific). The 100% inhibition control consisted of 1 mM final concentration of the product inhibitor S-adenosylhomocysteine (SAH, Sigma-Aldrich). Compounds were incubated for 30 minutes with 40 μL per well of 0.031 nM EHMT2 (recombinant purified human EHMT2 913-1193, Viva) in 1× assay buffer (20 mM Bicine [pH 7.5], 0.002% Tween 20, 0.005% Bovine Skin Gelatin and 1 mM TCEP). 10 μL per well of substrate mix comprising assay buffer, ^3H-SAM (^3H-labeled S-adenosylmethionine, American Radiolabeled Chemicals, specific activity of 80 Ci/mmol), unlabeled SAM (American Radiolabeled Chemicals), and peptide representing histone H3 residues 1-15 containing C-terminal biotin (appended to a C-terminal amide-capped lysine, synthesized by Biopeptide and HPLC-purified to greater than 95% purity) were added to initiate the reaction (both substrates were present in the final reaction mixture at their respective Km values, an assay format referred to as “balanced conditions”). Reactions were incubated for 60 minutes at room temperature and quenched with 10 μL per well of 400 μM unlabeled SAM, then transferred to a 384-well streptavidin Flashplate (PerkinElmer) and washed in a Biotek ELx-405 well washer with 0.1% Tween after 60 minutes. 384-well Flashplates were read on a TopCount microplate reader (PerkinElmer).

The target in the next assay is T2, EHMT1 (Homo sapiens, UniProt Q9H9B1).
T2 sequence (Q9H9B1 1-1298): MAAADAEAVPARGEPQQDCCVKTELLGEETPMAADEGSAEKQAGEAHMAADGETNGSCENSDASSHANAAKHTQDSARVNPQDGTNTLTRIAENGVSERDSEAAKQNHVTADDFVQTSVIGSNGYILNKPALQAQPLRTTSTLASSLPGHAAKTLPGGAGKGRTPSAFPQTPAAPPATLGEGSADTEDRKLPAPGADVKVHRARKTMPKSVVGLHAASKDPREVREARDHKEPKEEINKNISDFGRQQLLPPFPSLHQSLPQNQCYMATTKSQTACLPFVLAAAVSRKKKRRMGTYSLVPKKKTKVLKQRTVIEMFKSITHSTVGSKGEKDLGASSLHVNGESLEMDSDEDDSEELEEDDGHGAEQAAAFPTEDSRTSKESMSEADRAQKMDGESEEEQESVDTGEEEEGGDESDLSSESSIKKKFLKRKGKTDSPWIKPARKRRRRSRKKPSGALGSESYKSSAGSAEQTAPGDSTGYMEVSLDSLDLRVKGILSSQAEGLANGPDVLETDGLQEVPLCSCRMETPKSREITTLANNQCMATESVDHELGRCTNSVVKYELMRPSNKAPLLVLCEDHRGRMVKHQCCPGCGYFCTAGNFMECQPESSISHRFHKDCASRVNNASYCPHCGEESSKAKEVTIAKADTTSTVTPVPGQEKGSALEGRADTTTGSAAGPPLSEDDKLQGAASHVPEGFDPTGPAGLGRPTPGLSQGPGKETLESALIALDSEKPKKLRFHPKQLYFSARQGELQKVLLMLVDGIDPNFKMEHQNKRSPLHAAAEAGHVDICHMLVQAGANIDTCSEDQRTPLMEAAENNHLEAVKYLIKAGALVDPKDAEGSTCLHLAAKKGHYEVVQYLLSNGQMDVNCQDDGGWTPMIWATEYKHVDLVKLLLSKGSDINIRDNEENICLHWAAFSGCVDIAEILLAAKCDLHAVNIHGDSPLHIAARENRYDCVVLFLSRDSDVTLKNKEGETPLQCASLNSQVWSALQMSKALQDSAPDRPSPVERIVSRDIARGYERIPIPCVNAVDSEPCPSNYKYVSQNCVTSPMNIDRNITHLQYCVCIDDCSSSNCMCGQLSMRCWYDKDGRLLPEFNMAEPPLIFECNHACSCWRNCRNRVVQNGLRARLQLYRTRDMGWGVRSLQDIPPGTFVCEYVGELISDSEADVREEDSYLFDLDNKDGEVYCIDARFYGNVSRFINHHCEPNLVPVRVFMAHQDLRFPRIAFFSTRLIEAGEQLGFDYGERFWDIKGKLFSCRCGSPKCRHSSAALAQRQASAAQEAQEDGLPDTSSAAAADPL
In words: EHMT1 PEP enzyme assay. In kind it is biochemical.

[1] abbreviates: Table 3A, read-out: EHMT2 (IC50 μM).
The mark [2] stands for this setting: Table 3A, read-out: EHMT1 (IC50 μM).

A word on the IC50: it is the concentration at which inhibition is half-maximal.

Read-outs that look alike come from different tables or passages of the source.

Turning to `CNc1cc(C)nc(Nc2ccc(OC)c(C#CCNCCN(C)C)c2)n1` [Compound 49], the half-inhibitory concentration (IC50) at human EHMT2 913-1193 (Table 3, read-out: EHMT2 PEP (IC50 μM)) lay within 1 to 10 µM; on EHMT1 (Table 3, read-out: EHMT1 PEP (IC50 μM)) it was 0.1 to 1 µM.
As to `CNCc1cn(-c2cc(Nc3nc(C)cc(NC)n3)ccc2Cl)nn1` [Compound A1], the 50% inhibitory concentration (IC50) on human EHMT2 913-1193 (setting [1]) and on EHMT1 (setting [2]) was < 0.01 µM in each case.
In the case of `CNC1=Nc2cc(-n3cc([C@H]4CCCN4)nn3)c(Cl)cc2C12CCC2` [Compound A2R, (R)-5′-chloro-N-methyl-6′-(4-(pyrrolidin-2-yl)-1H-1,2,3-triazol-1-yl)spiro[cyclobutane-1,3′-indol]-2′-amine], the IC50 on human EHMT2 913-1193 (setting [1]) and on EHMT1 (setting [2]) was < 0.01 µM throughout.
On to `CNC1=Nc2cc(-n3cc([C@@H]4CCCN4)nn3)c(Cl)cc2C12CCC2` [Compound A2S, (S)-5′-chloro-N-methyl-6′-(4-(pyrrolidin-2-yl)-1H-1,2,3-triazol-1-yl)spiro[cyclobutane-1,3′-indol]-2′-amine], for which the IC50 at human EHMT2 913-1193 (setting [1]) is 0.1 to 1 µM; on EHMT1 (setting [2]), 0.01 to 0.1 µM.
The like results for `CNC1=Nc2cc(-n3cc(C4CCCN4)nn3)c(Cl)cc2C12CCC2` (stereo not drawn) [Compound A2] were, in that order, 0.01 to 0.1 µM and < 0.01 µM.
As to `CNCc1cn(-c2c(OC)ccc(Nc3nc(C)cc(NC)n3)c2F)nn1` [Compound A3, N2-(2-fluoro-4-methoxy-3-[4-[(methylamino)methyl]-1H-1,2,3-triazol-1-yl]phenyl)-N4,6-dimethylpyrimidine-2,4-diamine], the values for the IC50 on human EHMT2 913-1193 (setting [1]) and on EHMT1 (setting [2]) were 0.01 to 0.1 µM and < 0.01 µM, respectively.
The like results for `CNc1cc(C)nc(Nc2ccc(OC)c(-n3cc([C@H]4CCCN4)nn3)c2F)n1` [Compound A4R] were, in that order, 0.01 to 0.1 µM and < 0.01 µM.
As to `CNc1cc(C)nc(Nc2ccc(OC)c(-n3cc([C@@H]4CCCN4)nn3)c2F)n1` [Compound A4S], the concentration for half-maximal inhibition (IC50) is 0.1 to 1 µM on human EHMT2 913-1193 (setting [1]) and 0.01 to 0.1 µM on EHMT1 (setting [2]).
For `CNc1cc(C)nc(Nc2ccc(OC)c(-n3cc(C4CCCN4)nn3)c2F)n1` (stereo not drawn) [Compound A4], the 50% inhibitory concentration (IC50) at human EHMT2 913-1193 (setting [1]) was 0.01 to 0.1 µM; at EHMT1 (setting [2]), < 0.01 µM.
Consider `CNc1cc(C)nc(Nc2ccc(OC)c(-n3cc(CNC(C)C)cn3)c2F)n1` [Compound A5], for which the IC50 at human EHMT2 913-1193 (setting [1]) and on EHMT1 (setting [2]) was 0.1 to 1 µM in each case.
Turning to `CNc1cc(C)nc(Nc2ccc(Cl)c(-n3cc(CN)cn3)c2Cl)n1` [Compound A6], the IC50 at human EHMT2 913-1193 (setting [1]) and at EHMT1 (setting [2]) was < 0.01 µM throughout.
`CCNCc1cnn(-c2c(OC)ccc(Nc3nc(C)cc(NC)n3)c2F)c1` [Compound A7]: the IC50 on human EHMT2 913-1193 (setting [1]) is 0.1 to 1 µM; on EHMT1 (setting [2]) it was 0.01 to 0.1 µM.
As to `CNCc1cnn(-c2c(OC)ccc(Nc3nc(NC)cc(C(C)C)n3)c2F)c1` [Compound A8, N^2-(2-fluoro-4-methoxy-3-[4-[(methylamino)methyl]-1H-pyrazol-1-yl]phenyl)-N^4-methyl-6-(propan-2-yl)pyrimidine-2,4-diamine], the IC50 on human EHMT2 913-1193 (setting [1]) was 0.01 to 0.1 µM; on EHMT1 (setting [2]), < 0.01 µM.
`CNc1cc(C)nc(Nc2ccc(OC)c(-n3ncc4c3CCNC4)c2F)n1` [Compound A9, N2-(2-fluoro-4-methoxy-3-(4,5,6,7-tetrahydro-1H-pyrazolo[4,3-c]142yridine-1-yl)phenyl)-N4,6-dimethylpyrimidine-2,4-diamine]: the 50% inhibitory concentration (IC50) at human EHMT2 913-1193 (setting [1]) and on EHMT1 (setting [2]) was 0.1 to 1 µM in each case.
In the case of `CNC1=Nc2cc(-c3cc4n(n3)CCNC4)c(Cl)cc2C12CCC2` [Compound A10, 5′-chloro-N-methyl-6′-(4,5,6,7-tetrahydropyrazolo[1,5-a]pyrazin-2-yl)spiro[cyclobutane-1,3′-indol]-2′-amine], the results for the IC50 on human EHMT2 913-1193 (setting [1]) and at EHMT1 (setting [2]) were 0.1 to 1 µM and 0.01 to 0.1 µM, respectively.
For `CNCc1cn(-c2cc3c(cc2Cl)C2(CCC2)C(NC)=N3)nn1` [Compound A11, 5′-chloro-N-methyl-6′-(4-((methylamino)methyl)-1H-1,2,3-triazol-1-yl)spiro[cyclobutane-1,3′-indol]-2′-amine], the IC50 was 0.01 to 0.1 µM on human EHMT2 913-1193 (setting [1]) and < 0.01 µM on EHMT1 (setting [2]).
As to `CNC1=Nc2cc(-c3cc4n(n3)CCN(C)C4)c(Cl)cc2C12CCC2` [Compound A12, 5′-chloro-N-methyl-6′-(5-methyl-4,5,6,7-tetrahydropyrazolo[1,5-a]145yrazine-2-yl)spiro[cyclobutane-1,3′-indol]-2′-amine], the 50% inhibitory concentration (IC50) on human EHMT2 913-1193 (setting [1]) is > 1 µM; on EHMT1 (setting [2]) it was 0.1 to 1 µM.
Consider `CNCc1cn(-c2c(Cl)ccc(Nc3nc(C)cc(NC)n3)c2Cl)nn1` [Compound A13, N2-(2,4-dichloro-3-(4-((methylamino)methyl)-1H-1,2,3-triazol-1-yl)phenyl)-N4,6-dimethylpyrimidine-2,4-diamine], for which the concentration for half-maximal inhibition (IC50) on human EHMT2 913-1193 (setting [1]) and on EHMT1 (setting [2]) was < 0.01 µM throughout.
As to `CNCc1cc(-c2c(OC)ccc(Nc3nc(C)cc(NC)n3)c2F)no1` [Compound A14, N2-(2-fluoro-4-methoxy-3-[5-[(methylamino)methyl]-1,2-oxazol-3-yl]phenyl)-N4,6-dimethylpyrimidine-2,4-diamine], the IC50 was 0.01 to 0.1 µM at human EHMT2 913-1193 (setting [1]) and < 0.01 µM at EHMT1 (setting [2]).
With `CNCc1cn(-c2cc3c(cc2Cl)C2(CCC2)C(N)=N3)nn1` [Compound A15, 5′-chloro-6′-(4-((methylamino)methyl)-1H-1,2,3-triazol-1-yl)spiro[cyclobutane-1,3′-indol]-2′-amine], the IC50 at human EHMT2 913-1193 (setting [1]) and at EHMT1 (setting [2]) was 0.01 to 0.1 µM throughout.
Turning to `CNC1=Nc2cc(-n3cc(CN4CCC4)cn3)c(Cl)cc2C12CCC2` [Compound A17, 6′-(4-(azetidin-1-ylmethyl)-1H-pyrazol-1-yl)-5′-chloro-N-methylspiro[cyclobutane-1,3′-indol]-2′-amine], the IC50 on human EHMT2 913-1193 (setting [1]) and at EHMT1 (setting [2]) was 0.01 to 0.1 µM throughout.
